Experimental data published in US7842496B2, “Advanced selective plating media” (University of Maryland, priority 2006, dated 2010).
Where a name gives a salt, the structure may show the parent alone.

Tested on: Proteus
Experiment: Proteus background growth, plates inoculated with mixed culture of Proteus and Shigella
Format: cell-based
Settings: general statement
Text: FIG. 6 is a photograph of two plates. The plate on the right is coated with the selective growth media N4 agar of the present invention. The plate on the left is coated with SS agar.
FIG. 7 presents a photograph of two agar coated plates. On the right is a plate coated with a prototype N4 formulation assessing the concentration of NIAPROOF®4 for the suppression of competing, background bacterial growth while allowing good growth of Shigella. The plate on the left is coated with XLD agar. Both plates were inoculated with a mixed culture of Proteus and Shigella organisms and allowed to grow overnight.

CCCCC(CC)CCC(CC(C)C)OS(=O)(=O)O (stereo not shown) [NIAPROOF®4, 7-ethyl-2-methyl-4-undecanol hydrogen sulfate]
Suppression of Proteus spp.: very potent reagent in suppressing Proteus spp.
